Patent US9012443B2 (Amgen Inc., priority 2011, dated 2015)

Key:
Nav 1.7 = Nav 1.7 (Homo sapiens (Human), UniProt Q15858); assay: Nav 1.7 in vitro PX assay (PatchXpress whole cell voltage clamp); format: cell-based; settings: 293 cells, human Nav1.7, partially inactivated state; read-out: Nav1.7 PX IC50 IP
How it was run: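 HEK293 cells stably expressing human Nav1.7, whole-cell voltage clamp on PatchXpress, held at potential giving 20–50% inactivation; current elicited by 20 msec pulse to −10 mV.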

Nav 1.5 = Nav 1.5 (Homo sapiens (Human), UniProt Q14524); assay: Nav 1.5 in vitro PX assay (PatchXpress whole cell voltage clamp); format: cell-based; settings: 293 cells stably transfected with Nav 1.5; second part of table; read-out: Nav1.5 PX IC50
Protocol: Nav 1.5 In Vitro PX Assay
293 cells stably transfected with Nav 1.5 were recorded in whole cell voltage clamp mode with the PatchXpress automated electrophysiology system according the manufacturer's specifications (Molecular Devices, LLC, Sunnyvale, Calif.). Cells were held at a holding potential of −50 mV to inactivate sodium channels. To elicit sodium currents the voltage was changed to −120 mV to recover a portion of the channels, followed by delivery of test pulses of 20 msec duration to 0 mV, at 0.1 Hz. A single concentration of test compound was applied to cells for a duration of 5 minutes. Peak sodium current was measured at the end of the compound addition period to determine percent inhibition. A minimum of two cells were tested per concentration. IC50 curves were fitted to percent inhibition as a function of concentration.

Nav 1.7, sequence (Q15858 whole entry): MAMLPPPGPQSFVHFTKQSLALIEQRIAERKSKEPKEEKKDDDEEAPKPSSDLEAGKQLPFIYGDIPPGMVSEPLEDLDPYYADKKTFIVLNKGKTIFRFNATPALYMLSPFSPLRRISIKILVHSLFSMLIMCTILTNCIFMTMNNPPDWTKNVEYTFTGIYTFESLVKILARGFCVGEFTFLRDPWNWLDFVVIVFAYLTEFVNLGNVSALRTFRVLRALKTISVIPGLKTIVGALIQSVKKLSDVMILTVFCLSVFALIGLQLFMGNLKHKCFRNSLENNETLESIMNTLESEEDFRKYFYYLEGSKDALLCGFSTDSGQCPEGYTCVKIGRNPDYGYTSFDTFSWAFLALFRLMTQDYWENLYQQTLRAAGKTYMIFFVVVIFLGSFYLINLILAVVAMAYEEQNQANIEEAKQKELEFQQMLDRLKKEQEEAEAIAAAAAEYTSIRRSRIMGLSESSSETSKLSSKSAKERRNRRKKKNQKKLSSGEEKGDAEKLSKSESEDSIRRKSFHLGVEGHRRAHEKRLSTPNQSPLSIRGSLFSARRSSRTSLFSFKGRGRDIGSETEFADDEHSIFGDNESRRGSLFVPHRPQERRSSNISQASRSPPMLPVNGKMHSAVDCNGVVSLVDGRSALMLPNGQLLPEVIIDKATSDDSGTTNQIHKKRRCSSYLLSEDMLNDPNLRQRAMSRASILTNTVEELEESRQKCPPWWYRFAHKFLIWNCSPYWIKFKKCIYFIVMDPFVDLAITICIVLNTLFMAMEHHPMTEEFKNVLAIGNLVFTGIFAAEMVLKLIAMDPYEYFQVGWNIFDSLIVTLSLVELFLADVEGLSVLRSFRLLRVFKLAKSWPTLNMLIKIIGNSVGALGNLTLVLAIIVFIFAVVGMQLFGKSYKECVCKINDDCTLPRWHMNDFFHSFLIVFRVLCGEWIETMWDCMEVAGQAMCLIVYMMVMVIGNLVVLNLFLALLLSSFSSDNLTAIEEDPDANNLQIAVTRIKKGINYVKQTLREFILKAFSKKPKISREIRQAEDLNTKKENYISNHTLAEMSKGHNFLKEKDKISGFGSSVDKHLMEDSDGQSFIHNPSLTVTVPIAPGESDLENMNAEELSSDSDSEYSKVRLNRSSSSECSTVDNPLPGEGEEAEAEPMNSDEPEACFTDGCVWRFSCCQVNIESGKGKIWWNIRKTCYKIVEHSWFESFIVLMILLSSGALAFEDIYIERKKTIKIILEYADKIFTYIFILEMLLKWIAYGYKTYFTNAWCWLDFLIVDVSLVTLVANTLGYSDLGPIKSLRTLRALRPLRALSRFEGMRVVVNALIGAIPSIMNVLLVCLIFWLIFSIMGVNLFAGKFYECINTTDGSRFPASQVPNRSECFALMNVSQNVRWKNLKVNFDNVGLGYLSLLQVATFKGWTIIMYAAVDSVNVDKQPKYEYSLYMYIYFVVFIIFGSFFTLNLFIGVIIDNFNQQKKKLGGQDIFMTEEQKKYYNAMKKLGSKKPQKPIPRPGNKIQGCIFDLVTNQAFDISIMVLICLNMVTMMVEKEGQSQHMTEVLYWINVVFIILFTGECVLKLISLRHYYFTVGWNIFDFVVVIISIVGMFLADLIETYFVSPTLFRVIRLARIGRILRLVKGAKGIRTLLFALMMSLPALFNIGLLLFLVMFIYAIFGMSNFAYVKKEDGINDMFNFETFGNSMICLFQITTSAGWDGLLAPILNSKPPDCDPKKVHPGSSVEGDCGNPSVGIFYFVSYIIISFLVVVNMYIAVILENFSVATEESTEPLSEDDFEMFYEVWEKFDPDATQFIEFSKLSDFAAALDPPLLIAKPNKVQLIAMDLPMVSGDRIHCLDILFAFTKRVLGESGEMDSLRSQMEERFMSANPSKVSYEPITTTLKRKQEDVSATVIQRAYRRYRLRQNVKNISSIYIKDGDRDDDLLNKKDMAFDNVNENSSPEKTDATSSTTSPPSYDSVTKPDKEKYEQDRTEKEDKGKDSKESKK
Nav 1.5, sequence (Q14524 whole entry): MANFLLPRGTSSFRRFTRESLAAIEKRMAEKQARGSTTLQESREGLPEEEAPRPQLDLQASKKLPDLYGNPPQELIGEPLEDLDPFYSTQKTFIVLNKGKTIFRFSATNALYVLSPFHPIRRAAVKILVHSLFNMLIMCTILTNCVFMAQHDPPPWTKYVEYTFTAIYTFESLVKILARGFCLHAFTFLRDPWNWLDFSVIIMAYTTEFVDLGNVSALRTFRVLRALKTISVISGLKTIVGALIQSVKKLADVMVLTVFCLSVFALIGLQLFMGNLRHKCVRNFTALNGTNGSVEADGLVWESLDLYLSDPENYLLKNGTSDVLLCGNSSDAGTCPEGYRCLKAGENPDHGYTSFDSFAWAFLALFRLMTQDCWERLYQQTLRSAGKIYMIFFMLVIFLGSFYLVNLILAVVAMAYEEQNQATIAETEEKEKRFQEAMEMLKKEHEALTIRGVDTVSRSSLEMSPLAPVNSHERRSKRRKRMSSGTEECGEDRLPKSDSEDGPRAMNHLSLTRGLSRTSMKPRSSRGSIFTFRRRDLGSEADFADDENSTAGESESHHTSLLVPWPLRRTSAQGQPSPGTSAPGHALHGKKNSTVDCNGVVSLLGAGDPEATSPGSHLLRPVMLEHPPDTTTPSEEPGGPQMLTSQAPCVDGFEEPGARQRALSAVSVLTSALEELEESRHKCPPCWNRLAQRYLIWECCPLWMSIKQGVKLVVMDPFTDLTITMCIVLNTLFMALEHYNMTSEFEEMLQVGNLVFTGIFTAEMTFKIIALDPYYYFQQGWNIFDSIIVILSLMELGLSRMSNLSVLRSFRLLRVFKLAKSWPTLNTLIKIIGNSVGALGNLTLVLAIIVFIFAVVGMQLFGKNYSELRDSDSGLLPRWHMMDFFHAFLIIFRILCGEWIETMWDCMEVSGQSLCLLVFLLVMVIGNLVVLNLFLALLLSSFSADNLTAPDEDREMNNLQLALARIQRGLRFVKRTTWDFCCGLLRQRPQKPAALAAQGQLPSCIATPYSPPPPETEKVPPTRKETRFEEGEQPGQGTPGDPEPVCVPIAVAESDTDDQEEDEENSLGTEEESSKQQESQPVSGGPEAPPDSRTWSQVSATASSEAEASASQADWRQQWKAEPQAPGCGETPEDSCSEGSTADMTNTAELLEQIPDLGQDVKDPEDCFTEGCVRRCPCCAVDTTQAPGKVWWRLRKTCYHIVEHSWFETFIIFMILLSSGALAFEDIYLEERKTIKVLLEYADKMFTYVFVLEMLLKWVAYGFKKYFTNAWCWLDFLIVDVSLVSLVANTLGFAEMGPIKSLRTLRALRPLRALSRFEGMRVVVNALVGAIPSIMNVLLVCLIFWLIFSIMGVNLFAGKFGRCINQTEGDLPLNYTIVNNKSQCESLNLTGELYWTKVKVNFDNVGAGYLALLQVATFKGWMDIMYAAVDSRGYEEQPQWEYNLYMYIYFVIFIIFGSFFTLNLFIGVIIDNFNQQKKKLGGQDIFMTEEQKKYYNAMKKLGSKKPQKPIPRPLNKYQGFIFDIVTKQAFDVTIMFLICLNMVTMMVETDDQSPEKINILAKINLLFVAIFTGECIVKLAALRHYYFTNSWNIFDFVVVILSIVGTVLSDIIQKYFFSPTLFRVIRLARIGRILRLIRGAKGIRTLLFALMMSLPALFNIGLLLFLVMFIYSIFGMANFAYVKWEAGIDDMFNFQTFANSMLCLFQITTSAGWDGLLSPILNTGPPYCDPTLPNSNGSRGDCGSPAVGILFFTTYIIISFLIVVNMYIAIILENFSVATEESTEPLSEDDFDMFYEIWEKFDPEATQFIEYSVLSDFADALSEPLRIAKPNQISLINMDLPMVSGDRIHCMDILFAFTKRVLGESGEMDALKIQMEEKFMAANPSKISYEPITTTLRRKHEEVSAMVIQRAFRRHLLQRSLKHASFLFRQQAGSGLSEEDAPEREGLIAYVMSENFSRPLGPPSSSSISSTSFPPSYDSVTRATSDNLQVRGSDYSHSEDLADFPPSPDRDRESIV

Compound	IC50 (Nav 1.7) [nM]	IC50 (Nav 1.5) [nM]
COc1cc(-c2ccccc2C)ccc1-c1nccc2cc(S(=O)(=O)Nc3ccncn3)ccc12 [Example 441, 1-(3-METHOXY-2′-METHYL-[1,1′-BIPHENYL]-4-YL)-N-(PYRIMIDIN-4-YL)ISOQUINOLINE-6-SULFONAMIDE]	77	> 30000
COc1ccc(-c2cccc(F)c2)cc1-c1nccc2cc(S(=O)(=O)Nc3ncns3)ccc12 [Example 347, 1-(3′-FLUORO-4-METHOXY-[1,1′-BIPHENYL]-3-YL)-N-(1,2,4-THIADIAZOL-5-YL)ISOQUINOLINE-6-SULFONAMIDE]	40	> 30000
COc1cc(C(F)F)c(Cl)cc1-c1ncnc2cc(S(=O)(=O)Nc3nccs3)ccc12 [Example 270, 4-(5-CHLORO-4-(DIFLUOROMETHYL)-2-METHOXYPHENYL)-N-(THIAZOL-2-YL)QUINAZOLINE-7-SULFONAMIDE]	150	7440
COc1cc(-c2c(F)cccc2F)ccc1-c1nccc2cc(S(=O)(=O)Nc3ccncn3)ccc12 [Example 447, 1-(2′,6′-DIFLUORO-3-METHOXY-[1,1′-BIPHENYL]-4-YL)-N-(PYRIMIDIN-4-YL)ISOQUINOLINE-6-SULFONAMIDE]	237	> 30000
COc1ccccc1-c1ccnc2cc(S(=O)(=O)Nc3ncns3)ccc12 [Example 320, 4-(2-METHOXYPHENYL)-N-(1,2,4-THIADIAZOL-5-YL)QUINOLINE-7-SULFONAMIDE 2,2,2-TRIFLUOROACETATE]	155	> 30000
COc1cc(-c2cccc(F)c2)c(Cl)cc1-c1ncnc2cc(S(=O)(=O)Nc3nncs3)ccc12 [Example 522, 4-(2-CHLORO-3′-FLUORO-5-METHOXY-[1,1′-BIPHENYL]-4-YL)-N-(1,3,4-THIADIAZOL-2-YL)QUINAZOLINE-7-SULFONAMIDE]	34	> 30000
COc1cc(C(F)F)c(F)cc1-c1ncnc2cc(S(=O)(=O)Nc3cscn3)ccc12 [Example 513, 4-(4-(difluoromethyl)-5-fluoro-2-methoxyphenyl)-N-(thiazol-4-yl)quinazoline-7-sulfonamide]	783	> 30000
COc1cc(-c2ccc(F)c(F)c2)ccc1-c1ncnc2cc(S(=O)(=O)Nc3nncs3)ccc12 [Example 530, 4-(3′,4′-DIFLUORO-3-METHOXY-[1,1′-BIPHENYL]-4-YL)-N-(1,3,4-THIADIAZOL-2-YL)QUINAZOLINE-7-SULFONAMIDE]	233	> 30000
COc1ccc(-c2cccc(C(F)(F)F)c2)cc1-c1nccc2cc(S(=O)(=O)Nc3ccncn3)ccc12 [Example 349, 1-(4-METHOXY-3′-(TRIFLUOROMETHYL)-[1,1′-BIPHENYL]-3-YL)-N-(PYRIMIDIN-4-YL)ISOQUINOLINE-6-SULFONAMIDE]	38	> 30000
COc1cc(-c2cccc(C)c2)ccc1-c1nccc2cc(S(=O)(=O)Nc3ccncn3)ccc12 [Example 442, 1-(3-METHOXY-3′-METHYL-[1,1′-BIPHENYL]-4-YL)-N-(PYRIMIDIN-4-YL)ISOQUINOLINE-6-SULFONAMIDE]	87	> 30000
COc1cc(C(F)(F)F)ccc1-c1nccc2cc(S(=O)(=O)Nc3nc(Cl)cs3)ccc12 [Example 419, N-(4-CHLOROTHIAZOL-2-YL)-1-(2-METHOXY-4-(TRIFLUOROMETHYL)PHENYL)ISOQUINOLINE-6-SULFONAMIDE]	272	> 30000
COc1cc(-c2cccc(F)c2F)ccc1-c1nccc2cc(S(=O)(=O)Nc3ccncn3)ccc12 [Example 444, 1-(2′,3′-difluoro-3-methoxy-[1,1′-biphenyl]-4-yl)-N-(pyrimidin-4-yl)isoquinoline-6-sulfonamide]	185	> 30000
COc1ccccc1-c1ccc(-c2nccc3cc(S(=O)(=O)Nc4ccncn4)ccc23)c(OC)c1 [Example 466, 1-(2′,3-DIMETHOXY-[1,1′-BIPHENYL]-4-YL)-N-(PYRIMIDIN-4-YL)ISOQUINOLINE-6-SULFONAMIDE]	227	> 30000
